The test system of one data set is HeLa cells. In words: Trypan blue exclusion cytotoxicity assay, HeLa. Format: cell-based, human. The following applies: 20 μM, one hour incubation, ± standard deviation from two measurements. As to the method: (§1) Live cell experiments were performed with HeLa (human), GM07373 (bovine) or S2 (Drosophila) cells. HeLa and GM07373 cells were cultured in DMEM medium supplemented with 10% fetal bovine serum, […] (Fisher Scientific, Pittsburgh, Pa.) in a 37° C. water jacketed CO2 incubator (Thermo Scientific, Waltham, Mass.). HeLa and GM07373 cells were sub-cultured using 0.25% (w/v) trypsin-EDTA (Life Technology, Carlsbad, Calif.) solution every two days. Cells were sub-cultured onto custom-made glass bottom culture dishes two days before the microscopy experiment. On the day of the microscopy experiment, the growth media was replaced with 20 μM compound 12b in serum-free DMEM for one hour. Cells were rinsed with the imaging medium (pH=7.2, 155 mM NaCl, 5 mM KCl, 2 mM CaCl2, 1 mM MgCl2, 2 mM NaH2PO4, 10 mM HEPES and 10 mM Glucose) prior to collecting microscopy images. […]
(§2) HeLa, GM07373 or S2 cells were incubated with 20 μM of the compound 12b for an hour. Cytotoxicity of the compound was measured using trypan blue exclusion assays. […] The number of viable cells that excluded the dye was counted using a hemacytometer (Hausser Bright-Line, Hausser scientific, Horsham, Pa.) and an optical microscope.

The subject of another data set is S2 cells. Briefly: Trypan blue exclusion cytotoxicity assay, S2. Format: cell-based, Drosophila. The following applies: 20 μM, one hour incubation, ± standard deviation from two measurements. As to the method: as §1, §2
Another data set has as its system GM07373 cells. In words: Trypan blue exclusion cytotoxicity assay, GM07373. Format: cell-based, bovine. Conditions: 20 μM, one hour incubation, ± standard deviation from two measurements. As to the method:
as §1, §2

The nature of data set [1]: UV-Vis spectroscopy: absorption maximum and extinction coefficient. Format: physicochemical. As for the experimental part:
(§3) The observed substrate release rate as a function of photolysis time is quantified by the quantum efficiency parameter (ϵΦ), which is the product of the extinction coefficient at the irradiation wavelength (ϵ) and the quantum yield (Φ). Extinction coefficients for compounds 1-6 were determined by UV-Vis spectroscopy (see Table 1).

Data set [2] is described as follows: Fluorescence emission of compound solutions. The data set is classed as physicochemical. The source says:
FIG. 2 is a plot of normalized fluorescence as a function of wavelength for compounds 1-6 described herein.
See, e.g., Petr Klán et al., Chem. Rev. 113: 119-191 (2013), which is incorporated by reference as if fully set forth herein. Even thought the quantum yields for compounds 1-4 are lower than those for some o-nitrobenzyl photocaged structures, this lower quantum yield is compensated by the much higher extinction coefficients of the BODIPY chromophores compared to the o-nitrobenzyl chromophore, leading to reasonable quantum efficiencies. […] While not being bound by any particular theory, it is plausible that the higher quantum yield of compound 6 occurs because the iodine atoms promote intersystem crossing to a triplet state, which are usually longer lived than […]. Given that the triplet state of the corresponding carbocation is the computed ground state by ˜5 kcal/mol, it is certainly energetically reasonable that heterolysis could occur in the triplet excited state leading to the triplet “carbocation,” similar to the phenacyl photocage derivatives described by Givens et al., Can. J. Chem. 89: 364-384 (2011), which is incorporated by reference as if fully set forth herein.

Data set [3] is described as follows: Quantum yield of photorelease of acetic acid (ferrioxalate actinometry, 532 nm laser, LC-UV). The data set is classed as physicochemical. The following applies: for Φ (quantum yield of acetic acid release): MeOH, 532 nm ND:YAG laser, LC-UV. As for the experimental part:
as §3
To compute the quantum yields of photorelease (Φ), the flux of a 532 nm laser excitation beam (ND:YAG, 1st harmonic) was determined using potassium ferrioxalate actinometry. Release of acetic acid as a function of laser irradiation time in methanol was followed by quantitative LC/UV methods known in the art. Each quantum yield reported is the average of 3 separate runs. […] Additionally, repeating the quantum yield measurement for compound 2 on a different day with a different laser power setting (in triplicate) gave an identical value for the quantum yield, indicating reproducibility.
All quantum yields were carried out using a liquid-phase potassium ferrioxalate actinometer. The actinometer was prepared by mixing three volumes of 1.5 M K2C2O4 solution with one volume of 1.5 M FeCl3 solution in water, and stirring in complete darkness. The precipitated K3Fe(C2O4)3.3H2O was then recrystallized three times from hot water and dried in a current of warm air. To prepare 1 L of 0.15M K3Fe(C2O4)3.3H2O solution, 73.68 g of the precipitate was dissolved in 800 mL water; 100 mL 1.0 N sulfuric acid was added and filled to the mark with water, again in complete darkness. For all quantitative work the preparation and manipulation of the ferrioxalate solutions must be carried out in a darkroom, using a red light. The light intensity in a photochemical reaction is determined by irradiating ferrioxalate solution and monitoring the subsequent change in absorbance at 510 nm. Irradiation was conducted using 532 nm excitation from a ND:YAG laser source (1st harmonic). Autopipettes were used to ensure all volumes were accurately measured.
For each actinometric measurement a methacrylate cuvette was filled with 3 mL of 0.15 M ferrioxalate solution. The cell was placed in the sample holder, stirred and irradiated for a set period of time (0, 0.25, 0.50, 0.75, 1, 2, 3 minutes). After the allocated irradiation time the solution was transferred into a 25 mL volumetric flask, to which was added in sequence 6 mL of a developer solution (0.05 mol % phenanthroline/0.75 M acetate/0.2 M sulfuric acid), 5 mL 1 M sodium fluoride solution in water. The sample was diluted to 25 mL with water, mixed and allowed to incubate for 10 minutes. After the incubation period was complete, 3 mL of sample was transferred into 1 cm methacrylate cuvette and the absorbance (at 510 nm) read using a spectrophotometer.
Using iron sulfate standard solutions between 1.6×10^−5 M to 9.6×10^−5 M, a standard curve based on absorbance of the ferrioxalate/phenanthroline complex at 510 nm was compiled and the irradiated samples absorbances were compared to yield the concentration iron (II) cleaved via photolysis within the timescale of experiment.
The flux of the laser was calculated the following equations:
[formula] where I is the flux (Einstein/L/s), Δn is the Fe^2+ photogenerated (mole), φ is the quantum yield at 532 nm, V1 is the irradiated volume (mL), and t=irradiation time (seconds);
[formula] where V2 is the volume taken from the irradiated sample (mL), V3 is the volume after dilution for concentration determination (mL), and CT is the concentration of Fe^2+ after dilution (M); and
[formula] where abs is the absorbance at 510 nm, ϵ is the molar absorptivity (M^−1 cm^−1) and l is the path length.
Due to the low absorbance of the potassium ferrioxalate solution at 532 nm, a correction was made to account for an absorbance less than 2 (multiplied the flux by 0.0967).
For each compound, a solution of 1000 ppm was prepared using 1 mg of sample and dissolving in 1 mL methanol. […]

For the compound “3,5-Bis(4-(1,4,7,10-tetraoxaundecyl)styryl-1,7-dimethyl-8-(4-nitrobenzoato)pyrromethene fluoroborate [Compound 12b]”, the “% of Viable cells” value in the data set with HeLa cells is reported as 92 ± 5%; in the data set on S2 cells it was 93 ± 2%; in the data set with GM07373 cells it was 92 ± 5%.
For “8-Acetoxymethyl-1,3,5,7-tetramethyl pyrromethene fluoroborate [Compound 2]”, the λmax in data set [1] (Table 1) and in data set [1] (Table 2) was 515 nm in each case. Moreover, the ε in data set [1] (Table 1, extinction coefficient by UV-Vis spectroscopy) came out at 71000 M⁻¹ cm⁻¹; in data set [1] (Table 2), 71000 M⁻¹ cm⁻¹. For the same compound, the λem in data set [2] (Table 1) and in data set [2] (Table 2) was 526 nm throughout. The “Φ (quantum yield of photorelease)” value in data set [3] (Table 1, acetic acid release, 532 nm laser, methanol, average of 3 runs) was 9.9 ×10^−4. The “εΦ (quantum efficiency)” value in data set [3] (Table 1, product of extinction coefficient and quantum yield) is 70 M⁻¹ cm⁻¹; in data set [3] (Table 2), 70 M⁻¹ cm⁻¹. Further, the “Φ (quantum yield of acetic acid release)” value in data set [3] (Table 2, average of 3 runs) is 9.9 ×10^−4.
In the case of `COc1ccc(/C=C/c2cc(C)c3n2[B-](F)(F)[N+]2=C(C)C=C(C)C2=C3COC(C)=O)cc1` [Compound 7, 8-Acetoxymethyl-3-(4-methoxy)styryl-1,5,7-trimethyl pyrromethene fluoroborate], in data set [1] (Table 2), the ε was found to be 61000 M⁻¹ cm⁻¹ and the λmax was 586 nm. For the same compound, in data set [2] (Table 2), the λem is reported as 607 nm. Also, the “εΦ (quantum efficiency)” value in data set [3] (Table 2) came out at 6.0 M⁻¹ cm⁻¹. For the same compound, the “Φ (quantum yield of acetic acid release)” value in data set [3] (Table 2, average of 3 runs) is given as 9.8 ×10^−4.
As for `CC(=O)OCC1=C2C(C)=CC(C)=[N+]2[B-](F)(F)n2c(C=Cc3ccc(N(C)C)cc3)cc(C)c21` [Compound 8, 8-Acetoxymethyl-3-(4-dimethylamino)styryl-1,5,7-trimethyl pyrromethene fluoroborate], in data set [1] (Table 2), the ε is 60000 M⁻¹ cm⁻¹ and the λmax worked out at 633 nm. This compound also yielded a λem in data set [2] (Table 2) of 650 nm. Also, in data set [3] (Table 2), the “εΦ (quantum efficiency)” value amounted to 4.1 M⁻¹ cm⁻¹. Also, the “Φ (quantum yield of acetic acid release)” value in data set [3] (Table 2, average of 3 runs) is 6.9 ×10^−4.
In data set [1] (Table 2), `CC(=O)OCC1=C2C(C)=CC(C=Cc3ccccc3)=[N+]2[B-](F)(F)n2c(C=Cc3ccccc3)cc(C)c21` [Compound 9, 8-Acetoxymethyl-3,5-bisstyryl-1,7-dimethyl pyrromethene fluoroborate] showed a ε of 65000 M⁻¹ cm⁻¹ and a λmax of 640 nm. Moreover, the λem in data set [2] (Table 2) is 656 nm. Moreover, in data set [3] (Table 2), the “εΦ (quantum efficiency)” value is 2.9 M⁻¹ cm⁻¹. Further, the “Φ (quantum yield of acetic acid release)” value in data set [3] (Table 2, average of 3 runs) is reported as 4.5 ×10^−4.
With `COc1ccc(/C=C/C2=[N+]3C(=C(COC(C)=O)c4c(C)cc(/C=C/c5ccc(OC)cc5)n4[B-]3(F)F)C(C)=C2)cc1` [Compound 10a, 8-Acetoxymethyl-3,5-bis(4-methoxy)styryl-1,7-dimethyl pyrromethene fluoroborate], in data set [1] (Table 2), the ε worked out at 65000 M⁻¹ cm⁻¹ and the λmax was 661 nm. In data set [2] (Table 2), this compound had a λem of 684 nm. Further, in data set [3] (Table 2), the “εΦ (quantum efficiency)” value amounted to 2.7 M⁻¹ cm⁻¹. Further, the “Φ (quantum yield of acetic acid release)” value in data set [3] (Table 2, average of 3 runs) is listed as 4.1 ×10^−4.
Turning to `COCCOCCOCCOc1ccc(C=CC2=[N+]3C(=C(CO)c4c(C)cc(C=Cc5ccc(OCCOCCOCCOC)cc5)n4[B-]3(F)F)C(C)=C2)cc1` [Compound 11b, 3,5-Bis(4-(1,4,7,10-tetraoxaundecyl)styryl-1,7-dimethyl-8-hydroxymethylpyrromethene fluoroborate], in data set [1] (Table 2), the ε was determined as 120000 M⁻¹ cm⁻¹ and the λmax is given as 667 nm.

The record behind these values is patent publication US9957498B2, “Photoremovable protecting groups and uses thereof” (Iowa State University Research Foundation, Inc., priority 2015, dated 2018).
